Source: paper PMC10574761, “Novel 1,2,3-Triazole-Containing Quinoline–Benzimidazole Hybrids: Synthesis, Antiproliferative Activity, In Silico ADME Predictions, and Docking” (Molecules, 2023)

Columns and labels:
[1] = test system: MRC-5 (human fetal lung fibroblasts, non-tumor); experiment: MTT proliferation assay, MRC-5; format: cell-based; details: MRC5, 72 h treatment
Procedure: (§1) The effect of the new synthesized compounds was tested on five human tumor cell lines, HeLa (human cervical adenocarcinoma; from ATCC), CaCo-2 (human colorectal adenocarcinoma), HL-60 (acute promyelocytic leukemia), HuT78 (T-cell lymphoma) and THP-1 (acute monocytic leukemia), and on one non-tumor cell line, MRC-5 (human fetal lung fibroblasts). The MRC-5 cells were used between 24 and 26 passages. The cells were cultured in two different types of media: DMEM (Gibco, EU) and RPMI 1640 (Gibco, EU). Both media were supplemented with 2 mM glutamine, fetal bovine serum (10%; heat inactivated) and antibiotics (100 U penicillin and 0.1 mg streptomycin). RPMI 1640 was additionally supplemented with 10 mM HEPES and 1 mM sodium pyruvate. The cells growing in a monolayer were cultured in DMEM, while the cells growing in suspension were cultured in RPMI 1640. The cells were grown in humidified atmosphere under the conditions of 37 °C/5% CO2 gas in the CO2 incubator (IGO 150 CELLlife^TM, JOUAN, Thermo Fisher Scientific, Waltham, MA, USA).
(§2) Growth-inhibitory activity was assessed using a slightly modified procedure based on the National Cancer Institute’s protocol. Briefly, the cells were seeded in 96-well microtiter plates and incubated for 24 h. They were then treated with 10^−7 to 10^−4 M concentrations of the tested compounds for an additional 72 h. After the treatment period, the effects of the tested compounds on the growth rate of the cells were examined using the MTT assay. Absorbance was measured at 595 nm using a microplate reader. […] The selectivity index was calculated according to the following formula: SI=IC50 value of normal cell line/IC50 value of cancer cell line
(§3) The effect of each concentration was analyzed by plotting the logarithm of the concentration of the evaluated compound against the corresponding percentage inhibition value using least squares.

[2] = test system: HeLa (human cervical adenocarcinoma); experiment: MTT proliferation assay, HeLa; format: cell-based; details: 72 h treatment
Procedure: as §1, §2, §3

[3] = test system: CaCo-2 (human colorectal adenocarcinoma); experiment: MTT proliferation assay, CaCo-2; format: cell-based; details: 72 h treatment
Procedure: as §1, §2, §3

[4] = test system: THP-1 (acute monocytic leukemia); experiment: MTT proliferation assay, THP-1; format: cell-based, human; details: for IC50: Homo sapiens, THP-1, 72 h treatment, MTT
Procedure: as §1, §2, §3

Hut78 (T-cell lymphoma) = experiment: MTT proliferation assay, HuT78; format: cell-based, human; details: for IC50: Homo sapiens, HuT78, 72 h treatment, MTT
Procedure: as §1, §2, §3

[5] = test system: HL-60 (acute promyelocytic leukemia); experiment: MTT proliferation assay, HL-60; format: cell-based; details: Homo sapiens, 72 h treatment
Procedure: as §1, §2, §3

HuT78 cells = experiment: Cell cycle analysis by flow cytometry (PI staining); format: cell-based, human; details: 24 h, p < 0.05
Procedure: The cells were exposed to the compounds for 24 h, collected, washed with PBS, fixed with 70% ethanol and stored at −20 °C until analysis. On the day of analysis, the cell pellets were washed twice with PBS, resuspended in 1 mg/mL PI and 0.2 mg/mL RNase A and left in a dark/cold atmosphere for 30 min. The stained cells were analyzed using FACSCalibur (Becton Dickinson, Franklin Lakes, NJ, USA) flow cytometer. Tests were performed in duplicate and repeated twice. FlowJo software, version 10.2., was adapted for the analysis of DNA histograms.
[…] 13.5 (TIBCO Software Inc., Tulsa, USA) was used for the statistical analysis of the results. Student’s t test was used for data analysis. Differences were considered statistically significant at p < 0.05.

[6] = SI = IC50 of normal cell line (MRC-5) / IC50 of cancer cell line

SMILES	IC50 [1]	IC50 [2]	IC50 [3]	IC50 [4]	selectivity index (SI) for THP-1 cells [4, 6]	IC50 (Hut78 (T-cell lymphoma))	selectivity index (SI) for HuT78 cells (Hut78 (T-cell lymphoma); [6])	IC50 [5]	enrichment of the S fraction compared to control cells (HuT78 cells; HuT-78, 0.5 µM)	melting point	increase in the aggregation of cells in the subG0/G1 phase (HuT78 cells; HuT-78, 5 µM)	increase of the proportion of cells in subG0/G1 phase compared to untreated cells (HuT78 cells; HuT-78, 5 µM)
COc1ccc2[nH]c(-c3ccc(OCc4cn(-c5ccnc6cc(Cl)ccc56)nn4)cc3)nc2c1 [Compound 9c, 7-chloro-4-(4-{[4-(5-methoxy-1H--benzo[d]imidazol-2-yl)phenoxy]methyl}-1H-1,2,3-triazol-1-yl)quinoline]	2.71 µM	7.53 µM	8.3 µM	0.18 µM	15	0.2 µM	13.55	1.02 µM	31%	85 to 86 °C		
CCCNC(=N)c1ccc2[nH]c(-c3ccc(OCc4cn(-c5ccnc6cc(Cl)ccc56)nn4)c(Br)c3)nc2c1.Cl.Cl.Cl [Compound 10e, 2-(3-bromo-4-{[1-(7-chloroquinolin-4-yl)-1H-1,2,3-triazol-4-yl]methoxy}phenyl)-N-propyl-1H-benzo[d]imidazol-5-carboximidamide trihydrochloride]	> 100 µM	> 100 µM	> 100 µM	> 100 µM		9.68 µM		93.2 µM			more than threefold	
CCCNC(=N)c1ccc2[nH]c(-c3ccc(OCc4cn(CCNc5ccnc6cc(Cl)ccc56)nn4)cc3)nc2c1.Cl.Cl.Cl [Compound 14e, 2-{4-[(1-{2-[(7-chloroquinolin-4-yl)amino]ethyl}-1H-1,2,3-triazol-4-yl)methoxy]phenyl}-N-propyl-1H-benzo[d]imidazol-5-carboximidamide trihydrochloride]	> 100 µM	> 100 µM	> 100 µM	> 100 µM		10.9 µM		> 100 µM		209 to 211 °C		68%
COc1ccc2[nH]c(-c3ccc(OCc4cn(CCNc5ccnc6cc(Cl)ccc56)nn4)c(Br)c3)nc2c1 [Compound 15c, N-[2-(4-{[2-bromo-4-(5-methoxy-1H-benzo[d]imidazol-2-yl)phenoxy]methyl}-1H-1,2,3-triazol-1-yl)ethyl]-7-chloroquinolin-4-amine]	> 100 µM	> 100 µM	> 100 µM	1.65 µM		3.98 µM		2.62 µM		92 to 94 °C		
Cl.Cl.Cl.N=C(N)c1ccc2[nH]c(-c3ccc(OCc4cn(CCNc5ccnc6cc(Cl)ccc56)nn4)c(Br)c3)nc2c1 [Compound 15d, 2-{3-bromo-4-[(1-{2-[(7-chloroquinolin-4-yl)amino]ethyl}-1H-1,2,3-triazol-4-yl)methoxy]phenyl}-1H-benzo[d]imidazol-5-carboximidamide trihydrochloride]	> 100 µM	> 100 µM	> 100 µM	> 100 µM		> 100 µM		> 100 µM		215 to 217 °C		
CCCNC(=N)c1ccc2[nH]c(-c3ccc(OCc4cn(CCNc5ccnc6cc(Cl)ccc56)nn4)c(Br)c3)nc2c1.Cl.Cl.Cl [Compound 15e, 2-{3-bromo-4-[(1-{2-[(7-chloroquinolin-4-yl)amino]ethyl}-1H-1,2,3-triazol-4-yl)methoxy]phenyl}-N-propyl-1H-benzo[d]imidazol-5-carboximidamide trihydrochloride]	> 100 µM	> 100 µM	> 100 µM	> 100 µM		7.83 µM		> 100 µM		169 to 171 °C		36%
